{"source": "paper PMC7316994", "about": "“In Vitro Pharmacological Profile of a New Small Molecule Bradykinin B2 Receptor Antagonist” (Frontiers in Pharmacology, 2020)", "key": {"dog B2 receptor": {"target": "T1, dog B2 receptor (Canis lupus familiaris, UniProt Q9BDQ4)", "T1 sequence (Q9BDQ4 1-392)": "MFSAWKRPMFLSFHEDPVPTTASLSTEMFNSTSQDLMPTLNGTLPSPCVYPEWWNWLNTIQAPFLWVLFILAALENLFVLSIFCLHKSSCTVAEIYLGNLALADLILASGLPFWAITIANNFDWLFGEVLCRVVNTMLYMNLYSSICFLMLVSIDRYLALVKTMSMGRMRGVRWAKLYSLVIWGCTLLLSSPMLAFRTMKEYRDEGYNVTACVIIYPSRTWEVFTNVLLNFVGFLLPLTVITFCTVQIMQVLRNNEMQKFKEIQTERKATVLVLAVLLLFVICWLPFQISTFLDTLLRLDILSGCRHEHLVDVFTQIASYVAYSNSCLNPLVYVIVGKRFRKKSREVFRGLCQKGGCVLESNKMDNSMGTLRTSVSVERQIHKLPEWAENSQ", "experiment": "Ca^2+ mobilization assay, HEK293T cells", "assay_type": "cell-based"}, "Bombesin BB1": {"target": "T2, Bombesin BB1 (Homo sapiens, UniProt P28336)", "T2 construct": "host or cells: CHO cells", "T2 sequence (P28336 whole entry)": "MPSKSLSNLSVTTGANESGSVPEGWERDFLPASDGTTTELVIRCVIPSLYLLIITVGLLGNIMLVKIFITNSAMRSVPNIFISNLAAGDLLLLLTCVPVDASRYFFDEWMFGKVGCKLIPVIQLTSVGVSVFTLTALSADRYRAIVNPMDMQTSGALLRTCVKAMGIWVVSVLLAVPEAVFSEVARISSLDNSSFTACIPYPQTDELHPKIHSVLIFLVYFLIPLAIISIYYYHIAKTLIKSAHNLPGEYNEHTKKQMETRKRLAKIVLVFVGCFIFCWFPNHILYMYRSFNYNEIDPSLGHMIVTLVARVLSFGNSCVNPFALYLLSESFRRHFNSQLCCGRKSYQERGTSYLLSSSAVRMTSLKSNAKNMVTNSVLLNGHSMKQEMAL", "experiment": "radioligand binding (Table S2)", "conditions": "[125I] [Tyr4]-bombesin, Human recombinant CHO cells"}, "[1]": {"target": "T3, Cysteinyl leukotriene receptor CysLT1 (Homo sapiens, UniProt Q9Y271)", "T3 construct": "host or cells: CHO cells", "T3 sequence (Q9Y271 whole entry)": "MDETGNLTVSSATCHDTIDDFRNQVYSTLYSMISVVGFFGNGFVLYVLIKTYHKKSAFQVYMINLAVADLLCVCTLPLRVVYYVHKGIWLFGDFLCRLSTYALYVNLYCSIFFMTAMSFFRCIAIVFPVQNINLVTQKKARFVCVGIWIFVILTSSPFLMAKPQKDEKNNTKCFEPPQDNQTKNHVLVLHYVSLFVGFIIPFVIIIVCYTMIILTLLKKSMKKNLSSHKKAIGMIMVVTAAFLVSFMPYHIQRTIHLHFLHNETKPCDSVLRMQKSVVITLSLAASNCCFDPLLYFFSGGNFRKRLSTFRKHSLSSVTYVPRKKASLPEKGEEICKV", "experiment": "radioligand binding (Table S2)", "conditions": "[3H] LTD4, Human recombinant CHO cells"}, "Dopamine transporter": {"target": "T4, Dopamine transporter (Homo sapiens, UniProt Q01959)", "T4 construct": "host or cells: CHO cells", "T4 sequence (Q01959 whole entry)": "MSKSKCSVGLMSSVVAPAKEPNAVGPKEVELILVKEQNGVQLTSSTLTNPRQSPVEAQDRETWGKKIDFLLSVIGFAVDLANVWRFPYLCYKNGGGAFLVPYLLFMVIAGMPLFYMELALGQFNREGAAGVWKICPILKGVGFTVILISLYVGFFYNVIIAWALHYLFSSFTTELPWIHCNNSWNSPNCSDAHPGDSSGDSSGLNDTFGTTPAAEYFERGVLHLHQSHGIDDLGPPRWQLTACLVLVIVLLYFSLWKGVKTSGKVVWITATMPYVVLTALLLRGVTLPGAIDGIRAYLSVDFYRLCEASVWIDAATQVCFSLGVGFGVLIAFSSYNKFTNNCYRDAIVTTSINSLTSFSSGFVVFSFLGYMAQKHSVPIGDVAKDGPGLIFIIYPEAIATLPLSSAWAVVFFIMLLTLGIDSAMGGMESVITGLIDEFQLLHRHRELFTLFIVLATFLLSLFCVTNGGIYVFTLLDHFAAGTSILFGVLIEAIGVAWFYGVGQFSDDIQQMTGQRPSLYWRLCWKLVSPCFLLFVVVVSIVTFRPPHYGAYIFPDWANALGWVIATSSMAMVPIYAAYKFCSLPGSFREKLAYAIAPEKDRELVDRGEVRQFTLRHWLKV", "experiment": "radioligand binding (Table S2)", "conditions": "[3H] BTCP, Human recombinant CHO cells"}, "Galanin GAL1": {"target": "Galanin GAL1 (Homo sapiens, UniProt P47211)", "experiment": "radioligand binding (Table S2)", "conditions": "[125I] Galanin, Human recombinant HEK-293 cells"}, "[2]": {"target": "T5, Gonadotropin-releasing hormone (Homo sapiens, UniProt P30968)", "T5 construct": "host or cells: Chem-1 cells", "T5 sequence (P30968 whole entry)": "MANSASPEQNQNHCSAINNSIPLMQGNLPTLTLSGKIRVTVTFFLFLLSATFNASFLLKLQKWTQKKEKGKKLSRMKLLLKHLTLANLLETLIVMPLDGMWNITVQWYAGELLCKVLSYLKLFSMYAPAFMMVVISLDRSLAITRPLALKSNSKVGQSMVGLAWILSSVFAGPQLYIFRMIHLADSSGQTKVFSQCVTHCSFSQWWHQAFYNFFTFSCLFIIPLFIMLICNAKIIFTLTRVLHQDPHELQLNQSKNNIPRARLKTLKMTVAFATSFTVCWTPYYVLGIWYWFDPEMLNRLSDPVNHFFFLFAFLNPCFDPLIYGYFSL", "experiment": "radioligand binding (Table S2)", "conditions": "[125I] [D-Trp6]-LH-RH, Human recombinant Chem-1 cells"}, "[3]": {"target": "T6, Leukotriene B4 receptor BLT1 (Homo sapiens, UniProt Q15722)", "T6 construct": "host or cells: CHO cells", "T6 sequence (Q15722 whole entry)": "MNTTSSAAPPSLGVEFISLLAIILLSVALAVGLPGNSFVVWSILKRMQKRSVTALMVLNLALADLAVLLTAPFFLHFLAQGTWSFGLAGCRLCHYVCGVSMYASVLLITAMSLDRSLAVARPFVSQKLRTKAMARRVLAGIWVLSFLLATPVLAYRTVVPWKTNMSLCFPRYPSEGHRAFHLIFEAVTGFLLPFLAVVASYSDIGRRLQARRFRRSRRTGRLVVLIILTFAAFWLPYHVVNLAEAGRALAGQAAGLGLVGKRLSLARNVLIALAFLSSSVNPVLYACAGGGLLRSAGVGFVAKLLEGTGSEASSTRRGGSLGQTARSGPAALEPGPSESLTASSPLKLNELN", "experiment": "radioligand binding (Table S2)", "conditions": "[3H] LTB4, Human recombinant CHO cells"}, "Monoamino-oxidase MAO-A": {"target": "T7, Monoamino-oxidase MAO-A (Rattus norvegicus, UniProt P21396)", "T7 construct": "Rat cerebral cortex; from tissue; host or cells: rat cerebral cortex", "T7 sequence (P21396 whole entry)": "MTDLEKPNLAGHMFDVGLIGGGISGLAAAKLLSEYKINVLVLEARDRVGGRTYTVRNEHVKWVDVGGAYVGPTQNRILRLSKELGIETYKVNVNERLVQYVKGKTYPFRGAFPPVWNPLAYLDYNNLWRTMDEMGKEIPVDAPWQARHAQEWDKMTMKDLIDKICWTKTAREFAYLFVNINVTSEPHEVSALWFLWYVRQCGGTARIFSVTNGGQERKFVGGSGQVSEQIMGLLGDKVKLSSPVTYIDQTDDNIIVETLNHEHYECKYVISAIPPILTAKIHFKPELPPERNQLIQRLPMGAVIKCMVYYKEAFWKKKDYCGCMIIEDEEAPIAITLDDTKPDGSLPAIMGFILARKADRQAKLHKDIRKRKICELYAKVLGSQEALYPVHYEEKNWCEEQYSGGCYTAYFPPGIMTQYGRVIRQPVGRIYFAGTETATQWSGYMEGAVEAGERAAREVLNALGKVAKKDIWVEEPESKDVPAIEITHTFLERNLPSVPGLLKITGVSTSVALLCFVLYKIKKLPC", "experiment": "radioligand binding (Table S2)", "conditions": "[3H] Ro 41-1049, Rat cerebral cortex"}, "Neurokinin NK3": {"target": "T8, Neurokinin NK3 (Homo sapiens, UniProt P29371)", "T8 construct": "host or cells: CHO cells", "T8 sequence (P29371 1-465)": "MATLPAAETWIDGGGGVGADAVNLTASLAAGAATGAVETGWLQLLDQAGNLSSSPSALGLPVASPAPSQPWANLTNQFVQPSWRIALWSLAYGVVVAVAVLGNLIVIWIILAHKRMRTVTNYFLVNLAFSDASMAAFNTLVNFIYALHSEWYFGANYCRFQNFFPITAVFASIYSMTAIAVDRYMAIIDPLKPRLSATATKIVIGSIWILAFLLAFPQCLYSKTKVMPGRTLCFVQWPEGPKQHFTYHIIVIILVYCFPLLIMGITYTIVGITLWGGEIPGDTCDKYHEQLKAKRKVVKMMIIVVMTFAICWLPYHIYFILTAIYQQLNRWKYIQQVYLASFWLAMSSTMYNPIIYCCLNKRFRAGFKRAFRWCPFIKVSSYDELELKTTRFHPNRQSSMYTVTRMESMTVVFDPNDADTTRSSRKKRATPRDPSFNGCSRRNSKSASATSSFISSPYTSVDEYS", "experiment": "radioligand binding (Table S2)", "conditions": "[3H] SR 142801, Human recombinant CHO cells"}, "Orexin OX1": {"target": "T9, Orexin OX1 (Homo sapiens, UniProt O43613)", "T9 construct": "host or cells: CHO cells", "experiment": "radioligand binding (Table S2)", "conditions": "[125I] Orexin A, Human recombinant CHO cells"}, "[4]": {"target": "T10, Opioid nociceptin NOP (ORL1) (Homo sapiens, UniProt P41146)", "T10 construct": "host or cells: HEK-293 cells", "T10 sequence (P41146 whole entry)": "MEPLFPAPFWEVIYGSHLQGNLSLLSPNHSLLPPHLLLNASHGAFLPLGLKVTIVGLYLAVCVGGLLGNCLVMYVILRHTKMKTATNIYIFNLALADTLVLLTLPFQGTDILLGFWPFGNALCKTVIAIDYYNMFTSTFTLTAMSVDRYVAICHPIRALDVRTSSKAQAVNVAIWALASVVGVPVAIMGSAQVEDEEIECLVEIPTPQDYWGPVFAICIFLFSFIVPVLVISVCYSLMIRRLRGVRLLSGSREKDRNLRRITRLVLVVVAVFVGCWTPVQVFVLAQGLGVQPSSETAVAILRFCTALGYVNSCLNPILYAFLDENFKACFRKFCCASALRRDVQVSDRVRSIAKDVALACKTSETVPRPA", "experiment": "radioligand binding (Table S2)", "conditions": "[3H] Nociceptin, Human recombinant HEK-293 cells"}, "Serotonin 5-HT6": {"target": "T11, Serotonin 5-HT6 (Homo sapiens, UniProt P50406)", "T11 construct": "host or cells: CHO cells", "experiment": "radioligand binding (Table S2)", "conditions": "[3H] LSD, Human recombinant CHO cells"}, "PDE3A": {"target": "PDE3A (Homo sapiens, UniProt Q14432)", "sequence (Q14432 whole entry)": "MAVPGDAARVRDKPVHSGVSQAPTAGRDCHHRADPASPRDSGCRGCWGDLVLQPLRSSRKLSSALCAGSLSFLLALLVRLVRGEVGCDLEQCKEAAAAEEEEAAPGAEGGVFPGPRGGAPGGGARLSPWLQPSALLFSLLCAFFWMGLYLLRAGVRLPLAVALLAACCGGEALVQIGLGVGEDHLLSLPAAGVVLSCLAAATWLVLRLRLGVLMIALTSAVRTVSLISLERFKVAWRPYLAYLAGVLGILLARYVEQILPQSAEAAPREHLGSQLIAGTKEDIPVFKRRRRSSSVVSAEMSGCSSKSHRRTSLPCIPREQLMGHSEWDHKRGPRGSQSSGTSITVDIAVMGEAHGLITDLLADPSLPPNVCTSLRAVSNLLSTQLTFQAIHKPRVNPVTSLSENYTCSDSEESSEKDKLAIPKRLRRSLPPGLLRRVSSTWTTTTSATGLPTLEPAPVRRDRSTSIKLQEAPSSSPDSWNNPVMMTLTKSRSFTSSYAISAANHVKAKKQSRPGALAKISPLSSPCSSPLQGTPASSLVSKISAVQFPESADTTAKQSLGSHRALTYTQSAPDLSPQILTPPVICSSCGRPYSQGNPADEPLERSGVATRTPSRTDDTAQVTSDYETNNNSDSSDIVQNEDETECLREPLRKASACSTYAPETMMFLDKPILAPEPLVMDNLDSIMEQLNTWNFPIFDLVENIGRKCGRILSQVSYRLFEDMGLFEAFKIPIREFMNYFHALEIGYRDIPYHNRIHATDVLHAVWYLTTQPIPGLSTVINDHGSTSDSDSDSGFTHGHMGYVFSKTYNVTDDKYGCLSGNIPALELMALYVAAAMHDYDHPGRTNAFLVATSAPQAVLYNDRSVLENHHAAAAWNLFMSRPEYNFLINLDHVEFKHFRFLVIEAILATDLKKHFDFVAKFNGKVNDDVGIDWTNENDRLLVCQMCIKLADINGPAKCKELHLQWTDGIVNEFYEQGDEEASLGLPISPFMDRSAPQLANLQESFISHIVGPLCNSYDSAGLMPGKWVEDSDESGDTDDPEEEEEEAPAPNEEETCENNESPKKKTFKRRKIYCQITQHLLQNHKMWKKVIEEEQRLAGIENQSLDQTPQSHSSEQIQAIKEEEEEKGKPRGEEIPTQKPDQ", "experiment": "enzyme assay (Table S2)", "assay_type": "biochemical", "conditions": "[3H]cAMP + cAMP (0.5 µM), Scintillation counting"}, "Adenosine A3": {"target": "T12, Adenosine A3 (Homo sapiens, UniProt P0DMS8)", "T12 sequence (P0DMS8 1-318)": "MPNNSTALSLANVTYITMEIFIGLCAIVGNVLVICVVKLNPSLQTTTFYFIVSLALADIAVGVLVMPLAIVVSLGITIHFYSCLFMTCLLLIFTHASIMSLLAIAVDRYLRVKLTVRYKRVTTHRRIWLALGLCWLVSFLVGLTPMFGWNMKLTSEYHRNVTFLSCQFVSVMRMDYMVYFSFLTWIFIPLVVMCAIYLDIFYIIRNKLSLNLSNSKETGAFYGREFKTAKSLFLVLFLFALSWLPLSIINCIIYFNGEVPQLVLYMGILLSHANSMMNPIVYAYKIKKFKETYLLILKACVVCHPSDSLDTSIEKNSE", "experiment": "functional assay, cAMP HTRF, CHO cells (Table S2)", "assay_type": "cell-based", "design": "host or cells: CHO cells"}, "Adrenergic β1": {"target": "Adrenergic β1 (Homo sapiens, UniProt P08588)", "sequence (P08588 whole entry)": "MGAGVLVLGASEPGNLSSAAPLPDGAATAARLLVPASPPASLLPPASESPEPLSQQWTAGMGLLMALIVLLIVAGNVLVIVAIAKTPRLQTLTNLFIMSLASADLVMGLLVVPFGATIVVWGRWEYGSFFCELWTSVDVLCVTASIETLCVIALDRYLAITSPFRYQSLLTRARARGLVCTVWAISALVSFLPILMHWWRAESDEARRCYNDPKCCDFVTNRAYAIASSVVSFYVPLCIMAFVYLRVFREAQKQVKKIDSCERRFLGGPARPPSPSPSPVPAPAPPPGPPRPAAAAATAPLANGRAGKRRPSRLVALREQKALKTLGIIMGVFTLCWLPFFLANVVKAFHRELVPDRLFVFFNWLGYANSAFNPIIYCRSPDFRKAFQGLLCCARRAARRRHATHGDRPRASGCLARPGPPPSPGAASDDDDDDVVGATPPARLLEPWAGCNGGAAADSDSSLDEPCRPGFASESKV", "experiment": "radioligand binding (Table S2)", "conditions": "read-out: % Inhibition @ 10 µM"}, "Angiotensine AT1": {"target": "Angiotensine AT1 (Homo sapiens, UniProt P30556)", "experiment": "radioligand binding (Table S2)", "conditions": "read-out: % Inhibition @ 10 µM"}, "Angiotensine AT2": {"target": "Angiotensine AT2 (Homo sapiens, UniProt P50052)", "experiment": "radioligand binding (Table S2)", "conditions": "read-out: % Inhibition @ 10 µM"}, "Cannabinoid CB2": {"target": "Cannabinoid CB2 (Homo sapiens, UniProt P34972)", "sequence (P34972 whole entry)": "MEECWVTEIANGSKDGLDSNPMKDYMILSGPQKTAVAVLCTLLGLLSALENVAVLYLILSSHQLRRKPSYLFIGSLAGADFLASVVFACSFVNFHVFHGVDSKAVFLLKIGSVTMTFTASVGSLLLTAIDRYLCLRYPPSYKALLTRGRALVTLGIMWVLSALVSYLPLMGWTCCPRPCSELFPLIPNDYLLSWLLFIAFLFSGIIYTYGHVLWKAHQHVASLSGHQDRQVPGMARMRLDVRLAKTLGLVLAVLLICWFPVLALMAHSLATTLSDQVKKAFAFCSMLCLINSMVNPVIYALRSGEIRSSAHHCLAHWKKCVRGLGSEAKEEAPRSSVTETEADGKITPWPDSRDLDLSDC", "experiment": "radioligand binding (Table S2)", "conditions": "read-out: % Inhibition @ 10 µM"}}, "data": [{"smiles": "Cc1cc(-c2ncnn2C)c2cccc(OCc3c(Cl)cc(F)cc3[C@H](C)NC(=O)COC(F)F)c2n1", "note": "[Compound 3, (S)-N-(1-(3-chloro-5-fluoro-2-((2-methyl-4-(1-methyl-1H-1,2,4-triazol-5-yl)quinolin-8-yloxy)methyl)phenyl)ethyl)-2-(difluoromethoxy)acetamide]", "values": [{"measurement": "IC50", "setting": "dog B2 receptor", "value": "~7.6", "unit": "µM"}, {"measurement": "Kb", "setting": "dog B2 receptor", "value": "~2.7", "unit": "µM"}, {"measurement": "inhibition at 10 µM", "setting": "Bombesin BB1", "value": 6.7, "unit": "%"}, {"measurement": "inhibition at 10 µM", "setting": "[1]", "value": -2.2, "unit": "%"}, {"measurement": "inhibition at 10 µM", "setting": "Dopamine transporter", "value": 2.2, "unit": "%"}, {"measurement": "inhibition at 10 µM", "setting": "Galanin GAL1", "value": 22.4, "unit": "%"}, {"measurement": "inhibition at 10 µM", "setting": "[2]", "value": 5, "unit": "%"}, {"measurement": "inhibition at 10 µM", "setting": "[3]", "value": 16.7, "unit": "%"}, {"measurement": "inhibition at 10 µM", "setting": "Monoamino-oxidase MAO-A", "value": -1.3, "unit": "%"}, {"measurement": "inhibition at 10 µM", "setting": "Neurokinin NK3", "value": 6.1, "unit": "%"}, {"measurement": "inhibition at 10 µM", "setting": "Orexin OX1", "value": 7.1, "unit": "%"}, {"measurement": "inhibition at 10 µM", "setting": "[4]", "value": 14.5, "unit": "%"}, {"measurement": "inhibition at 10 µM", "setting": "Serotonin 5-HT6", "value": -4.5, "unit": "%"}, {"measurement": "inhibition at 10 µM", "setting": "PDE3A", "value": 15.9, "unit": "%"}, {"measurement": "inhibition at 10 µM", "setting": "Adenosine A3; CHO, read-out: % inhibition of reference agonist response @ 10 µM (antagonist effect), IB-MECA (10 nM)", "value": 8.5, "unit": "%"}, {"measurement": "% of reference agonist response @ 10 µM (agonist effect)", "setting": "Adenosine A3; reference IB-MECA (100 nM)", "value": 10.5, "unit": "%"}, {"measurement": "inhibition at 10 µM", "setting": "Adrenergic β1", "value": 0.3, "unit": "%"}, {"measurement": "inhibition at 10 µM", "setting": "Angiotensine AT1", "value": -4.1, "unit": "%"}, {"measurement": "inhibition at 10 µM", "setting": "Angiotensine AT2", "value": 3.5, "unit": "%"}, {"measurement": "inhibition at 10 µM", "setting": "Cannabinoid CB2", "value": -17.7, "unit": "%"}]}]}
